# Results: patent US12370235B2, “Synthetic, non-natural antimicrobial peptides inspired by Staphylococcus auricularis delta toxin” (University of Saskatchewan, priority 2021, dated 2025)
# Ends that are not written are not given here.
# What was measured:
# S. aureus ATCC 29213 = assay: MIC, broth dilution; assay type: cell-based, Staphylococcus aureus; conditions: Table 5; STIP3 variants, highest concentration 100 μg/mL
# Procedure: (§1) MIC determination. MICs were measured using peptides with 95% purity. For bacterial studies, cation-adjusted Mueller Hinton (MH) broth was used as the growth medium whereas Yeast Peptone Dextrose (YPD; 10 g/L yeast extract, 20 g/L peptone, 20 g/L dextrose) was used for Candida spp. and other yeast. Microorganisms were diluted to an optical density of […] in MH or YPD broth and a 180 μl volume was mixed with 20 μl of peptide arrayed as a 2-fold dilution series in a flat-bottom 96-well microtitre plate. A control was performed using 20 μl of sterile water. Plates were incubated as standing cultures overnight at 37° C.
# (§2) Determination of minimum inhibitory concentrations. The MICs were measured for bioactive peptides identified from the initial screen. For bacterial studies, cation-adjusted Mueller Hinton (MH) broth was used as the growth medium whereas YPD was used for C. albicans. Bacterial cultures were diluted to a OD value of 6×10^−4 in MH broth and a 180 μl volume was mixed with 20 μl of peptide arrayed as 2-fold dilution series in a 96-well plate. For the positive control, 20 μl of sterile water was used. Plates were incubated as standing cultures overnight at 37° C. The lowest peptide concentration that resulted no observed microbial growth after an overnight treatment was defined as the MIC.
# [1] = tested on: S. aureus ATCC 33592 (MRSA SCCmec type III); assay: MIC, broth dilution; assay type: cell-based, Staphylococcus aureus; conditions: Table 5; STIP3 variants, highest concentration 100 μg/mL
# Procedure: as §1, §2
# [2] = tested on: S. aureus ATCC BAA-1683 (MRSA SCCmec type IV); assay: MIC, broth dilution; assay type: cell-based, Staphylococcus aureus; conditions: Table 5; STIP3 variants, highest concentration 100 μg/mL
# Procedure: as §1, §2
# [3] = tested on: S. aureus ATCC BAA-2094 (MRSA SCCmec type V); assay: MIC, broth dilution; assay type: cell-based, Staphylococcus aureus; conditions: Table 5; STIP3 variants, highest concentration 100 μg/mL
# Procedure: as §1, §2
# [4] = tested on: S. aureus ATCC BAA-2313 (MRSA SCCmec type XI); assay: MIC, broth dilution; assay type: cell-based, Staphylococcus aureus; conditions: Table 5; STIP3 variants, highest concentration 100 μg/mL
# Procedure: as §1, §2
# [5] = tested on: S. aureus ATCC BAA-41 (MRSA SCCmec type II); assay: MIC, broth dilution; assay type: cell-based, Staphylococcus aureus; conditions: Table 5; STIP3 variants, highest concentration 100 μg/mL
# Procedure: as §1, §2
# [6] = tested on: S. aureus ATCC BAA-42 (MRSA SCCmec type VI); assay: MIC, broth dilution; assay type: cell-based, Staphylococcus aureus; conditions: Table 5; STIP3 variants, highest concentration 100 μg/mL
# Procedure: as §1, §2
# [7] = tested on: S. aureus ATCC BAA-44 (MRSA SCCmec type I); assay: MIC, broth dilution; assay type: cell-based, Staphylococcus aureus; conditions: Table 5; STIP3 variants, highest concentration 100 μg/mL
# Procedure: as §1, §2
# [8] = tested on: Mannheimia haemolytica ATCC 33393; assay: MIC, broth dilution; assay type: cell-based; conditions: Table 11; highest concentration 25 μg/mL
# Procedure: as §1, §2
# The ability of STIP3 variants to inhibit the growth of Mannheimia haemolytica ATCC 33393 was evaluated. This included an alanine scan of STIP3-1 (FIG. 8 & Table 10) as well as 30 rationally-designed STIPs that were evaluated in the preceding Examples against other pathogens (Table 11). Substitutions at a greater number of sites were tolerated in the context of antimicrobial activity. Moreover, the inclusion of basic natural and unnatural amino acids (e.g. lysine, ornithine, and arginine) at positions 3, 4 and 11 (i.e. X1, X2, and X4 of SEQ ID NO: 32) to afford a more uniformly cationic peptide increased activity against M. haemolytica.
# C. albicans MYA-2876 = assay: MIC, YPD broth; assay type: cell-based, Candida albicans; conditions: Table 8
# Procedure: as §1, §2
# [9] = tested on: Candida duobushaemulonii AR 391; assay: MIC, YPD broth, CDC and FDA AR Candida isolate panel; assay type: cell-based; conditions: Table 9 below the line: only 200 or 100 μg/mL tested; values reported as 100 are ≤100 μg/mL
# Procedure: as §1
# [10] = tested on: Candida duobushaemulonii AR 392; assay: as above; assay type: cell-based; conditions: Table 9 below the line: only 200 or 100 μg/mL tested; values reported as 100 are ≤100 μg/mL
# Procedure: as §1
# [11] = tested on: Candida duobushaemulonii AR 394; assay: as above; assay type: cell-based; conditions: Table 9 below the line: only 200 or 100 μg/mL tested; values reported as 100 are ≤100 μg/mL
# Procedure: as §1
# [12] = tested on: Candida haemulonii AR 393; assay: as above; assay type: cell-based; conditions: Table 9 below the line: only 200 or 100 μg/mL tested; values reported as 100 are ≤100 μg/mL
# Procedure: as §1
# [13] = tested on: Candida haemulonii AR 395; assay: as above; assay type: cell-based; conditions: Table 9 below the line: only 200 or 100 μg/mL tested; values reported as 100 are ≤100 μg/mL
# Procedure: as §1
# Candida krusei AR 397 = assay: as above; assay type: cell-based; conditions: Table 9 below the line: only 200 or 100 μg/mL tested; values reported as 100 are ≤100 μg/mL
# Procedure: as §1
# [14] = tested on: Candida lusitaniae AR 398; assay: as above; assay type: cell-based; conditions: Table 9 below the line: only 200 or 100 μg/mL tested; values reported as 100 are ≤100 μg/mL
# Procedure: as §1
# Kodamae ohmeri AR 396 = assay: as above; assay type: cell-based; conditions: Table 9 below the line: only 200 or 100 μg/mL tested; values reported as 100 are ≤100 μg/mL
# Procedure: as §1
# [15] = tested on: Saccharomyces cerevisiae AR 399; assay: as above; assay type: cell-based; conditions: Table 9 below the line: only 200 or 100 μg/mL tested; values reported as 100 are ≤100 μg/mL
# Procedure: as §1
# [16] = tested on: Saccharomyces cerevisiae AR 400; assay: as above; assay type: cell-based; conditions: Table 9 below the line: only 200 or 100 μg/mL tested; values reported as 100 are ≤100 μg/mL
# Procedure: as §1
Sequence,MIC S. aureus ATCC 29213 (S. aureus ATCC 29213),MIC S. aureus ATCC 33592 (III) [1],MIC S. aureus ATCC BAA 1683 (IV) [2],MIC S. aureus ATCC BAA 2094 (V) [3],MIC S. aureus ATCC BAA 2313 (XI) [4],MIC S. aureus ATCC BAA 41 (II) [5],MIC S. aureus ATCC BAA 42 (VI) [6],MIC S. aureus ATCC BAA 44 (I) [7],MIC (μg/mL) M. haemolytica [8] [µg/mL],MIC C. albicans MYA-2876 (C. albicans MYA-2876) [µg/mL],MIC (μg/mL) Candida duobushaemulonii AR 391 [9],MIC (μg/mL) Candida duobushaemulonii AR 392 [10],MIC (μg/mL) Candida duobushaemulonii AR 394 [11],MIC (μg/mL) Candida haemulonii AR 393 [12],MIC (μg/mL) Candida haemulonii AR 395 [13],MIC (μg/mL) Candida krusei AR 397 (Candida krusei AR 397) [µg/mL],MIC (μg/mL) Candida lusitaniae AR 398 [14] [µg/mL],MIC (μg/mL) Kodamae ohmeri AR 396 (Kodamae ohmeri AR 396),MIC (μg/mL) Saccharomyces cerevisiae AR 399 [15] [µg/mL],MIC (μg/mL) Saccharomyces cerevisiae AR 400 [16] [µg/mL]
"TVGGLVKWILDTVKKFI [STIP3-5, TVGGLVKWILDTVKKFI]",50 µg/mL,25 µg/mL,25 µg/mL,25 µg/mL,25 µg/mL,25 µg/mL,12.5 µg/mL,50 µg/mL,25,100,> (values below the line were determined using two concentrations of peptide 200 or 100 μg/mL),> (values below the line were determined using two concentrations of peptide 200 or 100 μg/mL),> (values below the line were determined using two concentrations of peptide 200 or 100 μg/mL),> (values below the line were determined using two concentrations of peptide 200 or 100 μg/mL),> (values below the line were determined using two concentrations of peptide 200 or 100 μg/mL),≤ 100,≤ 100,> (values below the line were determined using two concentrations of peptide 200 or 100 μg/mL),≤ 100,≤ 100
"TVGGLVKWILDTVKKFK [STIP3-7, TVGGLVKWILDTVKKFK]",> (no inhibition was observed at the highest concentration of peptide tested: 100 μg/mL for the STIP3 variants),> (no inhibition was observed at the highest concentration of peptide tested: 100 μg/mL for the STIP3 variants),> (no inhibition was observed at the highest concentration of peptide tested: 100 μg/mL for the STIP3 variants),> (no inhibition was observed at the highest concentration of peptide tested: 100 μg/mL for the STIP3 variants),> (no inhibition was observed at the highest concentration of peptide tested: 100 μg/mL for the STIP3 variants),> (no inhibition was observed at the highest concentration of peptide tested: 100 μg/mL for the STIP3 variants),> (no inhibition was observed at the highest concentration of peptide tested: 100 μg/mL for the STIP3 variants),> (no inhibition was observed at the highest concentration of peptide tested: 100 μg/mL for the STIP3 variants),25,50,> (values below the line were determined using two concentrations of peptide 200 or 100 μg/mL),> (values below the line were determined using two concentrations of peptide 200 or 100 μg/mL),> (values below the line were determined using two concentrations of peptide 200 or 100 μg/mL),> (values below the line were determined using two concentrations of peptide 200 or 100 μg/mL),> (values below the line were determined using two concentrations of peptide 200 or 100 μg/mL),≤ 100,≤ 100,> (values below the line were determined using two concentrations of peptide 200 or 100 μg/mL),≤ 100,≤ 100
